Tests used:
[1] = xn = mol fraction of the nth substance listed; conditions: 101 kPa, Liquid; for speed of sound: Pulse-echo method
[2] = refractive index (Na D-line) (dimensionless); xn = mol fraction of the nth substance listed; conditions: 101 kPa, Liquid, Standard Abbe refractometry

C1CCCCCCC1 [cyclooctane] + Cc1ccc(C)cc1
Conditions | mass density, [1] [kg/m3] | refractive index, [2] | speed of sound, [1] [m/s]
298.15 K, x1 = 0.0534 | 854.3 | 1.49055 | 1312
298.15 K, x1 = 0.1004 | 852.6 | 1.4883 | 1314
298.15 K, x1 = 0.2025 | 848.8 | 1.48358 | 1319
298.15 K, x1 = 0.303 | 845.4 | 1.4792 | 1325
298.15 K, x1 = 0.402 | 842.4 | 1.47506 | 1332
298.15 K, x1 = 0.4986 | 839.6 | 1.47129 | 1339
298.15 K, x1 = 0.599 | 837.1 | 1.46764 | 1348
298.15 K, x1 = 0.6981 | 835 | 1.46424 | 1357
298.15 K, x1 = 0.7968 | 833.3 | 1.46119 | 1367
298.15 K, x1 = 0.8926 | 832 | 1.4585 | 1377
298.15 K, x1 = 0.9504 | 831.5 | 1.45707 | 1384
298.15 K, x1 = 1 | 831.5 | 1.45598 | 1391
313.15 K, x1 = 0.0485 | 841.6 | 1.48247 | 1250
313.15 K, x1 = 0.0874 | 840.2 | 1.48077 | 1252
313.15 K, x1 = 0.1848 | 836.7 | 1.47651 | 1256
313.15 K, x1 = 0.2948 | 833.2 | 1.472 | 1262
313.15 K, x1 = 0.3853 | 830.4 | 1.46825 | 1268
313.15 K, x1 = 0.4829 | 827.7 | 1.46454 | 1274
313.15 K, x1 = 0.5809 | 825.3 | 1.46094 | 1282
313.15 K, x1 = 0.6837 | 823.1 | 1.45755 | 1291
313.15 K, x1 = 0.7877 | 821.3 | 1.45432 | 1301
313.15 K, x1 = 0.8888 | 820 | 1.45148 | 1312
313.15 K, x1 = 0.9413 | 819.5 | 1.4501 | 1318
313.15 K, x1 = 1 | 819.2 | 1.44877 | 1325

Cc1cccc(C)c1 [1,3-dimethylbenzene] + C1CCCC1
x2 = 0
Conditions | mass density, [1] [kg/m3] | refractive index, [2] | speed of sound, [1] [m/s]
298.15 K | 859.8 | 1.49466 | 1321
313.15 K | 846.9 | 1.48653 | 1259

Cc1ccccc1C [1,2-dimethylbenzene] + C1CCCCCCC1
x2 = 0
Conditions | mass density, [1] [kg/m3] | refractive index, [2] | speed of sound, [1] [m/s]
298.15 K | 875.4 | 1.50262 | 1350
313.15 K | 862.9 | 1.49466 | 1289

Cc1ccccc1C [1,2-dimethylbenzene] + C1CCCCC1
Conditions | mass density, [1] [kg/m3] | refractive index, [2] | speed of sound, [1] [m/s]
298.15 K, x2 = 0 | 875.4 | 1.50262 | 1350
298.15 K, x2 = 0.0471 | 870.8 | 1.49895 | 1343
298.15 K, x2 = 0.0981 | 865.5 | 1.49488 | 1336
298.15 K, x2 = 0.1961 | 855.2 | 1.48705 | 1323
298.15 K, x2 = 0.2986 | 844.5 | 1.47886 | 1310
298.15 K, x2 = 0.3979 | 834 | 1.47092 | 1298
298.15 K, x2 = 0.4964 | 823.8 | 1.46293 | 1288
298.15 K, x2 = 0.5975 | 813.5 | 1.45493 | 1278
298.15 K, x2 = 0.6978 | 803.2 | 1.44691 | 1269
298.15 K, x2 = 0.796 | 793.4 | 1.43924 | 1263
298.15 K, x2 = 0.8995 | 783.4 | 1.43126 | 1257
298.15 K, x2 = 0.9512 | 778.6 | 1.42739 | 1255
313.15 K, x2 = 0 | 862.9 | 1.49466 | 1289
313.15 K, x2 = 0.0528 | 857.4 | 1.49053 | 1282
313.15 K, x2 = 0.0977 | 852.7 | 1.48716 | 1275
313.15 K, x2 = 0.1958 | 842.3 | 1.47934 | 1261
313.15 K, x2 = 0.2169 | 840 | 1.47754 | 1258
313.15 K, x2 = 0.4011 | 820.4 | 1.46285 | 1234
313.15 K, x2 = 0.4999 | 809.9 | 1.45473 | 1222
313.15 K, x2 = 0.5976 | 799.6 | 1.44694 | 1211
313.15 K, x2 = 0.6971 | 789.4 | 1.43921 | 1201
313.15 K, x2 = 0.7994 | 779 | 1.43094 | 1193
313.15 K, x2 = 0.8995 | 769.1 | 1.42311 | 1186
313.15 K, x2 = 0.9484 | 764.5 | 1.41926 | 1183

Cc1ccc(C)cc1 [1,4-dimethylbenzene] + C1CCCC1
x2 = 0
Conditions | mass density, [1] [kg/m3] | refractive index, [2] | speed of sound, [1] [m/s]
298.15 K | 856.6 | 1.49312 | 1310
313.15 K | 843.5 | 1.48444 | 1248

Cc1cccc(C)c1 [1,3-dimethylbenzene] + C1CCCCC1
Conditions | mass density, [1] [kg/m3] | refractive index, [2] | speed of sound, [1] [m/s]
298.15 K, x2 = 0 | 859.8 | 1.49466 | 1321
298.15 K, x2 = 0.0346 | 856.9 | 1.49219 | 1317
298.15 K, x2 = 0.096 | 851.4 | 1.48781 | 1310
298.15 K, x2 = 0.1974 | 842.2 | 1.48052 | 1300
298.15 K, x2 = 0.2879 | 834.1 | 1.47391 | 1291
298.15 K, x2 = 0.3982 | 824.1 | 1.46589 | 1281
298.15 K, x2 = 0.5005 | 815 | 1.45851 | 1273
298.15 K, x2 = 0.6019 | 806.2 | 1.45128 | 1267
298.15 K, x2 = 0.6976 | 797.9 | 1.44447 | 1261
298.15 K, x2 = 0.7985 | 789.4 | 1.43723 | 1257
298.15 K, x2 = 0.9021 | 781.1 | 1.42992 | 1254
298.15 K, x2 = 0.9509 | 777.4 | 1.42673 | 1254
313.15 K, x2 = 0 | 846.9 | 1.48653 | 1259
313.15 K, x2 = 0.0355 | 843.7 | 1.48408 | 1255
313.15 K, x2 = 0.095 | 838.3 | 1.47988 | 1248
313.15 K, x2 = 0.1903 | 829.6 | 1.47305 | 1238
313.15 K, x2 = 0.2937 | 820.2 | 1.46566 | 1227
313.15 K, x2 = 0.3969 | 810.8 | 1.45826 | 1217
313.15 K, x2 = 0.4919 | 802.3 | 1.45153 | 1209
313.15 K, x2 = 0.5952 | 793.1 | 1.44402 | 1200
313.15 K, x2 = 0.6963 | 784.3 | 1.43677 | 1193
313.15 K, x2 = 0.7968 | 775.5 | 1.42954 | 1187
313.15 K, x2 = 0.8984 | 767.3 | 1.42246 | 1183
313.15 K, x2 = 0.9496 | 763.45 | 1.41885 | 1182

Reference: the NIST ThermoML archive (doi:10.1021/je901020a)
